{"source": "patent US20150065888A1", "about": "“METHOD AND APPARATUS FOR OBTAINING VASODILATION DATA REPRESENTING CUTANEOUS LOCAL THERMAL HYPEREMIA RESPONSE OF A SUBJECT” (NEW CHINESE BIOTECHNOLOGY CORPORATION LTD, priority 2012, published 2015)", "system": "cutaneous local thermal hyperemia response", "assay": "Cutaneous local thermal hyperemia test by laser Doppler flowmetry before and after chemical intervention (oral β-blocker)", "assay_type": "in vivo, human", "details": "subject with panic disorder, 30 minutes after oral propranolol 10 mg", "description": "The participants were supine during the entire test period. Cutaneous blood flow was measured by LDF (Moor DRT4, Moor Instruments Ltd, Axminster, Devon, UK). For each measurement, blood pressure was recorded continuously with a non-invasive blood pressure monitor (CareTaker, Empirical Technologies Corporation, Charlottesville, Va., USA) on the middle finger of the dominant hand throughout the procedures.\nBlood flow was recorded simultaneously on the upper one-fourth of the bilateral forearm using LDF (DP12-V2 probe, 2 channels, length: 12 mm, diameter 1.5 mm; Moor Instruments Ltd.), and two recording sites were located at the radial half of the flexor and extensor aspects of the forearm, which were located according to a predefined rule. The probe was mounted to a probe holder to hold the probe in position. The extensor and flexor recording sites were located along the line between the extensor and flexor aspects of the lateral epicondyle of the humerus, respectively, and the lateral side of the styloid process of radius. The same sites were measured bilaterally with the flexor and extensor aspects in a random sequence. The recording sites were kept thermally neutral at 33° C. by a heater (SH02-SHP2 probe, Moor Instruments Ltd.) for 5 minutes for the baseline measurement, and then the temperature was increased to 42° C. by 1° C./10 seconds and maintained at 42° C. for up to 5 minutes. After completing the measurements, the holders were maintained in situ, and all of the procedures were repeated with the same recording sequence 45 minutes after the first measurement. The holders were then removed without marking after the first day of the experiment. The same procedures were conducted at the same time 1 to 3 days later, and the recording sites were relocated according to the same predefined rule.\nCutaneous red blood cell flux (RBCF), expressed as arbitrary perfusion units (PUs), was used to indicate local cutaneous blood flow, and CVC (PU/mmHg), which derived from RBCF divided by mean arterial pressure to adjust for the influence of blood pressure, was the indicator of blood flow change.\nBaseline CVC, peak CVC, absolute change of peak CVC, percent change of peak CVC, 4 minutes area-under-the-curve (AUC), and time to peak flux were used as indicators of the hyperemic response during heating. The absolute change of peak CVC was defined as the peak CVC minus baseline CVC, and the percentage of peak CVC change equals to the absolute change of peak CVC divided by baseline CVC multiplied by 100%. The 4 minutes AUC was the accumulation of blood flux during the first 4 minutes of the heating period. The time to peak flux was the period from the heating started and up to peak flux.\nUpon arrival in the laboratory, the subjects were arranged on chairs in a temperature- and humidity-controlled laboratory (40-60% humidity, 25±1° C.) for acclimation of 30 minutes. After the acclimation period, the thermal hyperemia test was performed at specified sampling sites. The participants were supine during the entire test period. Cutaneous blood flow was measured by LDF (Moor DRT4, Moor Instruments Ltd, Axminster, Devon, UK). For each measurement, blood pressure was recorded continuously with a non-invasive blood pressure monitor (CareTaker, Empirical Technologies Corporation, Charlottesville, Va., USA) on the middle finger of the dominant hand throughout the procedures. The sampling and data processing procedures taught in Example 1, above, also applied in the present example.\nSubject (45 kg) suffering from panic disorder was sampled at the infraclavicular, parasternal and axilla sites (points (i), (j) and (l) in FIG. 2) on both the right and left sides before and after the administration of β-blocker. Specifically, the post-β-blocker sampling procedure was performed at 30 minutes after the oral administration of β-blocker, propranolol, (10 mg).", "data": [{"smiles": "CC(C)NCC(O)COc1cccc2ccccc12", "note": "(stereo not drawn) [propranolol]", "values": [{"measurement": "CVCI, max, After", "setting": "Axilla, left", "result": 1.09, "unit": "PU/mmHg"}, {"measurement": "Initial AUC, After", "setting": "Axilla, left", "result": 17019, "unit": "PU"}, {"measurement": "ΔCVC, After", "setting": "Axilla, left", "result": 0.92, "unit": "PU/mmHg"}, {"measurement": "CVCI, max, After", "setting": "Axilla, right", "result": 1.91, "unit": "PU/mmHg"}, {"measurement": "Initial AUC, After", "setting": "Axilla, right", "result": 31740, "unit": "PU"}, {"measurement": "ΔCVC, After", "setting": "Axilla, right", "result": 1.63, "unit": "PU/mmHg"}, {"measurement": "CVCI, max, After", "setting": "Infraclavicular, left", "result": 1.03, "unit": "PU/mmHg"}, {"measurement": "Initial AUC, After", "setting": "Infraclavicular, left", "result": 17298, "unit": "PU"}, {"measurement": "ΔCVC, After", "setting": "Infraclavicular, left", "result": 0.88, "unit": "PU/mmHg"}, {"measurement": "CVCI, max, After", "setting": "Infraclavicular, right", "result": 1.95, "unit": "PU/mmHg"}, {"measurement": "Initial AUC, After", "setting": "Infraclavicular, right", "result": 33797, "unit": "PU"}, {"measurement": "ΔCVC, After", "setting": "Infraclavicular, right", "result": 1.76, "unit": "PU/mmHg"}, {"measurement": "CVCI, max, After", "setting": "Parasternal, left", "result": 1.45, "unit": "PU/mmHg"}, {"measurement": "Initial AUC, After", "setting": "Parasternal, left", "result": 26800, "unit": "PU"}, {"measurement": "ΔCVC, After", "setting": "Parasternal, left", "result": 1.28, "unit": "PU/mmHg"}, {"measurement": "CVCI, max, After", "setting": "Parasternal, right", "result": 2.53, "unit": "PU/mmHg"}, {"measurement": "Initial AUC, After", "setting": "Parasternal, right", "result": 47602, "unit": "PU"}, {"measurement": "ΔCVC, After", "setting": "Parasternal, right", "result": 2.36, "unit": "PU/mmHg"}]}]}
